How the values were obtained:
[1] = system: HIV; conditions: cited from earlier work
[2] = system: HIV; assay: Inactivation of HIV from blood of sero-positive patient, reverse transcriptase activity after culture with H9 cells; assay type: cell-based, Human Immunodeficiency Virus (HIV); conditions: Human immunodeficiency virus 1, H9, 1 h, read-out: concentration giving complete inactivation of HIV (no reverse transcriptase detected), 1 hour at 37° C., H9 cells
Procedure: In order to show the effectiveness of the compounds of the present invention in the inactivation of HIV, blood was obtained from an HIV sero-positive patient and treated with hypericin and pseudohypericin at various concentrations for 1 hour at 37° C. and incubated with uninfected H9 cells in culture. Thereafter, reverse transcriptase enzymatic activity was determined as disclosed in U.S. patent application Ser. Nos. 084,008 and 172,064 filed Aug. 10, 1987 and Mar. 23, 1988, respectively.
(§1) In FIG. 1, open squares represent hypericin-treated and pluses represent pseudohypericin treated HIV. […] Inactivation of the reverse transcriptase activity of the virions was not a result of a direct inhibition of reverse transcriptase activity per se, as incubation of either compound directly with purified reverse transcriptase from either avian myeloblastosis virus or murine leukemia virus had no effect on enzyme activity. Furthermore, aliquots of HIV derived from these H9 cell cultures lost the ability to replicate in culture when exposed to as little as 0.77 micrograms/ml of hypericin.

[3] = system: HIV; assay: Inhibition of HIV induced syncytia formation / cell fusion (summary over the assays); assay type: cell-based, Human Immunodeficiency Virus (HIV)
Procedure: (§2) In order to assess the effects of Hy and Ps on the ability of HIV to form syncytia, the following experiments were performed. For the analysis of HIV-1, an entry syncytia assay was performed by co-culturing H9 cells (described in Popovic, M. et al. Science 224: 497-500, 1984) infected with the IIIb isolate of HIV with uninfected Supt-1 cells (Walker, B. D. et al. Proc. Nat. Acad. Sci. (USA) 84: 8120-8124, 1987) as the target cell. HIV-2 was tested using HUT78 cells (obtained from the National Institute of Health by reference to Depository Catalog, Reagent Program, Bethesda, Md.) infected with the ROD-2 isolate of HIV-2 co-cultured with uninfected H9 target cells. The infected cells were plated in 96 well plates (10^4 cells per well in RPM1 1640 medium with 10% fetal calf serum) and incubated with or without dilutions of Ps or Hy for 30 minutes at 37° C. 1×10^5 target cells were then added per well and the number of syncytia were quantitatively and qualitatively determined after 24 hours.

[4] = system: HIV-2; assay: Syncytia assay, HUT78 cells infected with ROD-2 isolate co-cultured with H9 cells; assay type: cell-based; conditions: 24 hours
Procedure: as §2

[5] = system: HIV-1 env; assay: Syncytia assay, cell line expressing only envelope proteins of HIV-1 IIIb with Supt-1 cells; assay type: cell-based; conditions: 24 hours
Procedure: as §2
Also tested in a syncytia assay was a constructed cell line expressing only the envelope proteins of HIV-1 type IIIb isolate (Walker, B. D. et al., supra). These cells, designated HIV-1 env in Table 6, were treated with the indicated concentrations of Ps or Hy and incubated with uninfected Supt-1 target cells as above.

[6] = system: HIV-1; assay: Syncytia assay, H9 cells infected with IIIb isolate of HIV co-cultured with Supt-1 cells; assay type: cell-based; conditions: 24 hours
Procedure: as §2

[7] = system: purified reverse transcriptase from avian myeloblastosis virus; assay: Direct incubation with purified reverse transcriptase; assay type: biochemical
Procedure: as §1

[8] = biological target: purified reverse transcriptase from murine leukemia virus (Moloney murine leukemia virus isolate Shinnick, UniProt P03355); assay: as above; assay type: biochemical
Procedure: as §1

nonylphenoxypolyethoxyethanol [Nonoxynol-9]
concentration effective against free virus [1]: > 0.05 % (vol/vol)

Cc1cc(O)c2c(=O)c3c(O)cc(O)c4c5c(O)cc(O)c6c(=O)c7c(O)cc(CO)c8c1c2c(c34)c(c65)c78 [pseudohypericin]
IC100 [2]: > 100 µg/mL | inhibition of cell fusion ([3]; compared with hypericin): effective but at substantially higher | dose needed for similar inhibition relative to hypericin ([3]; syncytia formation): 20-60 fold | syncytia score (number 0-4, size S/M/L) ([4]; 12 nanograms): 4 L | syncytia score (number 0-4, size S/M/L) ([4]; 24 nanograms): 4 L | syncytia score (number 0-4, size S/M/L) ([4]; 47 nanograms): 4 L | syncytia score (number 0-4, size S/M/L) ([4]; 94 nanograms): 4 L | syncytia score (number 0-4, size S/M/L) ([4]; 188 nanograms): 4 L | syncytia score (number 0-4, size S/M/L) ([4]; 375 nanograms): 4 L | syncytia score (number 0-4, size S/M/L) ([4]; 750 nanograms): 3 M | syncytia score (number 0-4, size S/M/L) ([4]; 1500 nanograms): 2S | syncytia score (number 0-4, size S/M/L) ([4]; 3000 nanograms): 2S | syncytia score (number 0-4, size S/M/L) ([5]; 12 nanograms): 4 L | syncytia score (number 0-4, size S/M/L) ([5]; 24 nanograms): 4 L | syncytia score (number 0-4, size S/M/L) ([5]; 47 nanograms): 4 L | syncytia score (number 0-4, size S/M/L) ([5]; 94 nanograms): 4 L | syncytia score (number 0-4, size S/M/L) ([5]; 188 nanograms): 4 L | syncytia score (number 0-4, size S/M/L) ([5]; 375 nanograms): 4 L | syncytia score (number 0-4, size S/M/L) ([5]; 750 nanograms): 4 L | syncytia score (number 0-4, size S/M/L) ([5]; 1500 nanograms): 3 L | syncytia score (number 0-4, size S/M/L) ([5]; 3000 nanograms): 1S | syncytia score (number 0-4, size S/M/L) ([6]; 12 nanograms): 4 L | syncytia score (number 0-4, size S/M/L) ([6]; 24 nanograms): 4 L | syncytia score (number 0-4, size S/M/L) ([6]; 47 nanograms): 4 L | syncytia score (number 0-4, size S/M/L) ([6]; 94 nanograms): 4 L | syncytia score (number 0-4, size S/M/L) ([6]; 188 nanograms): 4 L | syncytia score (number 0-4, size S/M/L) ([6]; 375 nanograms): 4 L | syncytia score (number 0-4, size S/M/L) ([6]; 750 nanograms): 4 L | syncytia score (number 0-4, size S/M/L) ([6]; 1500 nanograms): 3 M | syncytia score (number 0-4, size S/M/L) ([6]; 3000 nanograms): 1S | effect on enzyme activity of purified reverse transcriptase [7]: no effect | effect on enzyme activity of purified reverse transcriptase [8]: no effect

Source: patent US5326788A, “Biological fluid purification system” (priority 1992, dated 1994)
